From patent publication US20200268765A1, “METHOD OF TREATING MEDULLOBLASTOMA WITH AN EZH2 INHIBITOR” (Epizyme, Inc., priority 2015, published 2020)
Entries after “also recorded” stand apart in the source; their conditions may differ.

Assays:
[1] = tested on: SNF5 mutant cell lines A204, G401 and G402; test: Response of SNF5 mutant versus wild type cell lines to EZH2 compound; format: cell-based; conditions: compared to wild type cell lines RD and SJCRH30; FIGS. 2A-2E
[2] = tested on: G401 SNF mutant cell line; test: Soft agar growth of G401 versus RD cells; format: cell-based; conditions: after 7 days in soft agar, compared to wild type cells RD; FIGS. 3A-3D
From the text: FIGS. 3A-3D are a series of bar graphs showing that G401 SNF mutant cell line is responding to Compound D after 7 days in soft agar compared to wild type cells RD.

[3] = tested on: LNCAP prostate cancer cells; test: LNCAP cell growth inhibition in vitro; format: cell-based; conditions: FIG. 7A
[4] = tested on: ATRX mutant SCLC lines NCI-H446, SW1271 and NCI-H841; test: Response of ATRX mutant SCLC lines; format: cell-based; conditions: FIGS. 8A-8C
From the text: FIGS. 8A-8C are three graphs establishing that ATRX mutant SCLC lines NCI-H446 (FIG. 8A), SW1271 (FIG. 8B) and NCI-H841 (FIG. 8C) are responding to Compound D.

SCLC line NCI-H841 = test: Microscopy of cell morphology; format: cell-based; conditions: 4.1E-02 uM or 3.3 uM; FIGS. 9A-9C
[5] = tested on: atypical teratoid rhabdoid tumors (ATRTs); test: ATRT cell self-renewal; format: cell-based
From the text: FIG. 24A is a series of photographs showing control or EZH2 inhibitor-treated (DNZep-treated) atypical teratoid rhabdoid tumors (ATRTs) at 1, 3, 5, and 7 days post-treatment.
FIG. 24D is a series of photographs showing control or EZH2 inhibitor-treated (DNZep-treated) atypical teratoid rhabdoid tumors (ATRTs) at 3, 5, 8 and 10 days post-treatment.

BT-16 ATRT cell line = test: Surviving fraction after 2Gy radiation, BT-16; format: cell-based; conditions: FIG. 25A
From the text: FIG. 25A is a pair of graphs showing a surviving fraction of untreated or DZNEP-treated ATRT cells (from a BT-16 ATRT cell line) exposed to 2Gy radiation. Inhibition of EZH2 radio-sensitizes ATRT.

UPN737 ATRT cell line = test: Surviving fraction after 2Gy radiation, UPN737; format: cell-based; conditions: FIG. 25B
From the text: FIG. 25B is a pair of graphs showing a surviving fraction of untreated or DZNEP-treated ATRT cells (from a UPN737 ATRT cell line, “737”) exposed to 2Gy radiation. Inhibition of EZH2 radio-sensitizes ATRT.

medulloblastoma cells = test: Medulloblastoma cell growth (total cells per milliliter over time); format: cell-based; conditions: for medulloblastoma cell growth (total cells per milliliter): as a function of time (days), FIGS. 26A-26C
From the text: The total cells per milliliter of culture were counted each day for 10 days.

[6] = tested on: G401 SNF5 mutant cell line; test: CellTiter-Glo Luminescent Cell Viability Assay after 7 days pretreatment; format: cell-based; conditions: pretreated for 7 days, replated on day 0; FIGS. 4A-4D
Protocol: FIGS. 4A-4D are four graphs showing that G401 SNF5 mutant cell line is sensitive to Compound A in vitro. Wild type cell line SJCRH30 (FIG. 4A) and RD (FIG. 4C) and SNF5 mutant cell line G401 (FIG. 4B) and A204 (FIG. 4D) were pretreated for 7 days with indicated concentrations of Compound A and replated on day 0. Cell viability was determined by CellTiter-Glo® Luminescent Cell Viability Assay.

G401 xenografts = test: G401 xenograft (malignant rhabdoid tumor model); format: in vivo, SCID mice
Protocol: Data represent the mean values±SEM (n=8). Compound administration was stopped on day 28. FIG. 5C: EZH2 target inhibition in G401 xenograft tumor tissue collected from a parallel cohort of mice on day 21. […] Horizontal lines represent group mean values. BLLQ=below lower limit of quantification. FIGS. 5D and 5E show Immunohistochemical staining of tumor histone methylation of tumor samples from the vehicle treated (FIG. 5D) and Compound A treated (FIG. 5E) (at 125 mg/kg) mice.
Data are presented as mean values±SEM (n=16 until day 21, n=8 from day 22 to 60). […] FIG. 15C: Tumor weights of 8 mice euthanized on day 21. ****p<0.0001, Fisher's exact test. FIG. 15D: Plasma was collected 5 min before and 3 h after dosing of Compound A on day 21, and compound levels were measured by LC-MS/MS. Animals were euthanized, and tumors were collected 3 h after dosing on day 21. Tumor homogenates were generated and subjected to LC-MS/MS analysis to determine Compound A concentrations. Note that tumor compound levels could not be determined from all animals especially in the higher dose groups because the xenografts were too small on day 21. Dots represent values for the individual animals; horizontal lines represent group mean values.
FIGS. 16A-16F are a series of graphs showing that Compound A eradicates SMARCB1-deleted MRT xenografts in SCID mice. […]

[7] = tested on: cellular H3K27Me3 levels in G401 and RD cells; test: Cellular histone methylation (immunoblot of acid-extracted histones); format: cell-based
Protocol: FIGS. 10A-10F are a series of graphs showing effects of Compound A on cellular global histone methylation and cell viability.
FIG. 12A: Cell lysates were analyzed by immunoblot with antibodies specific to SMARCB1, EZH2 and Actin (loading control). […] Cells were incubated with Compound A for 4 days, and acid-extracted histones were analyzed by immunoblot.

[8] = tested on: SMARCB1-deleted MRT cells; test: Cell cycle analysis (flow cytometry) and apoptosis (TUNEL assay); format: cell-based; conditions: 1 μM, up to 14 days, FIG. 13
Protocol: Cell cycle analysis (by flow cytometry) and determination of apoptosis (by TUNEL assay) in RD (FIG. 13A) or G401 cells (FIG. 13B) during incubation with either vehicle or 1 μM Compound A for up to 14 days. G1 arrest was observed as of day 7 and apoptosis was induced as of day 11. Data are represented as mean values±SEM (n=2). The DMSO control values shown are the average±SEM from each time point. Cells were split and re-plated on days 4, 7 and 11 at the original seeding density.

SMARCB1 regulated genes = test: Gene expression by qPCR; format: cell-based; conditions: G401 and RD cells, 1 μM, 2, 4 and 7 days; FIGS. 14A-14L
Protocol: FIG. 14A: Basal expression of SMARCB1 regulated genes in G401 SMARCB1-deleted cells, relative to RD control cells (measured by qPCR, n=2). FIGS. 14B-14K: G401 and RD cells were incubated with either DMSO or 1 μM Compound A for 2, 4 and 7 days. Gene expression was determined by qPCR (n=2) and is expressed relative to the DMSO control of each time point. FIGS. 14B-14K correspond to genes GLI1, PTCh1, DOCK4, CD133, PTPRK, BIN1, CDKN1A, CDKN2A, EZH2, and MYC, respectively. FIG. 14L: G402 cells were incubated with either DMSO (left panel) or 1 μM Compound A (right panel) for 14 days. Cells were split and re-plated to the original seeding density on day 7.

Oral bioavailability = conditions: in vivo
[9] = tested on: primary medulloblastoma cells
Protocol: FIG. 28A is a schematic diagram depicting the process by which primary medulloblastoma cell growth is evaluated ex vivo.
A slice culture of medulloblastoma was freshly isolated from a subject.
A patient having medulloblastoma underwent surgery to remove a slice of tumor tissue for testing. The medulloblastoma slice was cultured ex vivo on tissue supporting inserts (FIG. 28A). […] Following the treatment period, the cells of the slice culture were treated with BrdU for 4 hours prior to disaggregation and sorting by flow cytometry.

ATRT = ATRT survival in vivo; conditions: versus vehicle; FIG. 29A
[10] = 500 nM or 2 μM, 4 days, compared to untreated control

Structure (SMILES): CCN(c1cc(-c2ccc(CN3CCOCC3)cc2)cc(C(=O)NCc2c(C)cc(C)[nH]c2=O)c1C)[C@H]1CC[C@H](N(C)C)CC1 [Compound D]
- response of cell lines to EZH2 compound [1]: selectively respond
- response in soft agar [2]: responding
- cell growth inhibition [3]: dose-dependent cell growth inhibition
- response of cell lines [4]: responding
- cell morphology (SCLC line NCI-H841): changes morphology

Structure (SMILES): Nc1nccc2c1ncn2C1C=C(CO)C(O)C1O (stereo not shown) [DNZep]
- ATRT cell self-renewal ([5]; 1, 3, 5, and 7 days post-treatment, FIG. 24A): suppresses ATRT cell self-renewal
- ATRT cell self-renewal ([5]; 3, 5, 8 and 10 days post-treatment, FIG. 24D): suppresses ATRT cell self-renewal
- radio-sensitization (surviving fraction) (BT-16 ATRT cell line): radio-sensitizes
- radio-sensitization (surviving fraction) (UPN737 ATRT cell line): radio-sensitizes

Structure (SMILES): CC[C@H](C)n1cc(C)c2c(C(=O)NCc3c(C)cc(C)[nH]c3=O)cc(-c3ccc(N4CCNCC4)nc3)cc21 [GSK-126, reference compound]
- medulloblastoma cell growth (total cells per milliliter) (medulloblastoma cells): decrease medulloblastoma cell growth

Structure (SMILES): CCCc1cc(C)[nH]c(=O)c1CNC(=O)c1cc(-c2ccc(N3CCN(C(C)C)CC3)nc2)cc2c1cnn2C(C)C [UNC 1999, reference compound]
- medulloblastoma cell growth (total cells per milliliter) (medulloblastoma cells): decrease medulloblastoma cell growth

Structure (SMILES): CCN(c1cc(-c2ccc(CN3CCOCC3)cc2)cc(C(=O)NCc2c(C)cc(C)[nH]c2=O)c1C)C1CCOCC1 [tazemetostat]
- cell viability (sensitivity in vitro) [6]: sensitive
- tumor regression (G401 xenografts; administration stopped on day 28, FIGS. 5A-5B): durable regressions
- tumor regression (G401 xenografts; twice daily (BID) for 21 days, FIG. 15B): Tumor regressions induced
- inhibition of cellular H3K27 methylation (specificity) ([7]; 4 days incubation, immunoblot, FIG. 12B): Selective inhibition of cellular H3K27 methylation
- inhibition of cellular H3K27Me3 levels ([7]; FIG. 10B): Concentration-dependent inhibition
- day as of which apoptosis was induced ([8]; TUNEL): 11 days
- day as of which G1 arrest was observed [8]: 7 days
- expression of SMARCB1 regulated genes (SMARCB1 regulated genes): induces changes in expression
- medulloblastoma cell growth versus negative control (DMSO) (medulloblastoma cells; 0.5 μM, 2 μM and 6 μM, counted each day for 10 days, FIG. 26C): significant decrease
- effect on medulloblastoma cell growth compared with the other small molecule inhibitors tested (medulloblastoma cells; GSK-126, UNC 1999 and tazemetostat, FIG. 26D): superior ability to decrease medulloblastoma cell growth; also recorded: greatest effect
- medulloblastoma cell growth (total cells per milliliter) (medulloblastoma cells): decrease medulloblastoma cell growth
- oral bioavailability (Oral bioavailability): orally bioavailable
- proportion of cells in the G0/G1 stage [9, 10]: increased proportion
- proportion of cells in the G2/M stage [9, 10]: decreased proportion
- primary medulloblastoma cell growth ex vivo (cell cycle stages) ([9]; slice culture treated 4 days, FIG. 28B): decreases primary medulloblastoma cell growth ex vivo
- primary medulloblastoma cell growth ex vivo (BrdU) ([9]; slice culture treated 4 days, FIG. 28C): decreases primary medulloblastoma cell growth ex vivo
- percent survival / ATRT in vivo (ATRT): decreases ATRT in vivo
